For seven compounds, activity and EC50 results are on record in article PMC10709440, “High-throughput ligand profile characterization in novel cell lines expressing seven heterologous insect olfactory receptors for the detection of volatile plant biomarkers” (Scientific Reports, 2023).

Each structure is given as a SMILES string. Like-named read-outs stand apart in the source and are kept apart here.

The target of experiment [1] is T1, Drosophila OR13a (Drosophila melanogaster, UniProt Q9VXL0).
T1 construct: expressed in transfected cells
T1 sequence (Q9VXL0 1-418): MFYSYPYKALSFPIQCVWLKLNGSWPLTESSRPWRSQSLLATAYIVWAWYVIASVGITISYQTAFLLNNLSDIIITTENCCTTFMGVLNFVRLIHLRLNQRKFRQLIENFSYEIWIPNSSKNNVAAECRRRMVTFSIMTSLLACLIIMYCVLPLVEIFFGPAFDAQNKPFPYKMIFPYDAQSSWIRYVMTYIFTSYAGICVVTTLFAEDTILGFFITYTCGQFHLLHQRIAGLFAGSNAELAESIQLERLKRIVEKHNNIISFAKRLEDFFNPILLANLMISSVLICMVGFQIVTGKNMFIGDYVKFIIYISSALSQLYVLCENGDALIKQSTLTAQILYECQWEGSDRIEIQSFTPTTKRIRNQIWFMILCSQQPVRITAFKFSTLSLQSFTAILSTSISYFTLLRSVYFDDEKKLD
T1 sequence (Q9VNB5 1-486 partner): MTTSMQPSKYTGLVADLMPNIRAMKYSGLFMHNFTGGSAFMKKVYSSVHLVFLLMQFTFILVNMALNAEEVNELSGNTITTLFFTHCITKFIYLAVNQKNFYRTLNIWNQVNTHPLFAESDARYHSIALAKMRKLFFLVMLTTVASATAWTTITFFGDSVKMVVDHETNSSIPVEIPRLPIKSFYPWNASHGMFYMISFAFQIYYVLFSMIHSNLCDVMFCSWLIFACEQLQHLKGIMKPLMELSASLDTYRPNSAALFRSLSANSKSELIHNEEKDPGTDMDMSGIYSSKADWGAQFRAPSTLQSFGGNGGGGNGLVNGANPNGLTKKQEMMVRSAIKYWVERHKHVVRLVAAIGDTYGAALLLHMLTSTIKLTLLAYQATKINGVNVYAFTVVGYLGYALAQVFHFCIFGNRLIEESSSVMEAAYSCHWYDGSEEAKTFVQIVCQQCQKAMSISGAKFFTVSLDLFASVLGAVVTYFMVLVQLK
Nature of the experiment: cell-based. Set-up: GCaMP6 calcium fluorescence in stable HEK293 OR+ORCO lines; peak dF normalised to 50 uM VUAA1 (=1). The conditions noted are these: HEK293; relative to 50 uM VUAA1 response; below 0.05 set to 0; read-out: % activation. As to the method: Twelve thousand to 18,000 cells were plated into each well of a black wall, transparent bottom 384-well microplate (Greiner) 48 h or 72 h before the measurements and were simultaneously treated with 1 μg/mL doxycycline. […] The plate has 24 columns, thus we could record responses in up to eight different cell lines in each plate. On the day of the experiment, the growth medium was replaced with 20 µL assay buffer/well (140 mM NaCl, 5 mM KCl, 2 mM CaCl2, 1 mM MgCl2, 5 mM HEPES-Na, 20 mM glucose, pH 7.3, 340 mOsm). […] Baseline fluorescence (F0) was recorded for 5 s, after which 7 µL VOC buffer (140 mM NaCl, 5 mM KCl, 2 mM CaCl2, 1 mM MgCl2, 5 mM HEPES-Na, 31 mM glucose, 0.1% DMSO, pH 7.3, 340 mOsm) was injected into each well in one row and the fluorescence response was recorded for an additional 30 s, at a rate of one read/sec. VOC solutions (VOC buffer with 4× concentration of the final measured VOC concentration, 9 µL/well was injected) were measured on the same wells in a second round with the same protocol. Each individual concentration of a specific VOC sample was recorded in three wells for the same cell line on the same microplate. The raw data were exported in xls file format, F0 and FMAX values, and the fluorescence intensity changes (∆F) were calculated in Excel (Microsoft) (Supplementary file Data summary.xlsx) using the following equation: ΔF=FMAX-F0/F0 (see also Fig. 1C). On each plate, we recorded the response of each cell line to 50 µM VUAA1. The average of these ∆F values of each cell line were used to calculate the VUAA1-normalized values for the rest of the plate, by dividing VOC response ∆F values by the average VUAA1 response ∆F value of the corresponding OR cell line. Each VOC-OR combination was measured three times as tec The recorded FMAX, F0, ∆F, VUAA1-normalized ∆F values, as well as the OR name, the name of the tested sample, and the final concentration for each well were copied into supplementary file Data summary.xlsx, that was used to summarize all the plates recorded. Here, the averages of the measurements were calculated for each receptor-VOC-concentration combination. […] Each VOC was measured at 1, 10, and 100 µM final concentration on each receptor. VUAA1-normalized response was calculated as described in methods.

Experiment [2] concerns OR47a. The note with it: similar system to Xenopus oocytes, cited from earlier work.
The subject of experiment [3] is OR13a. The note with it: Bactrocera dorsalis OR13a; read-out: EC50 in electrophysiology; cited from earlier work.
The target in experiment [4] is OR85b receptor. The note with it: cited from earlier work.

`C=C1[C@H]2CC[C@@H]3[C@H]2C(C)(C)CCC[C@]13C` [(+)-longifolene]: in experiment [1], the activity at 1 µM is 0%, the activity at 10 µM stood at 0% and the activity at 100 µM worked out at 0%.

Broadly, the EC50 is the concentration needed to bring the measured effect to its halfway point. Turning to `CCCCCOC(C)=O` [pentyl acetate], the concentration giving a half-maximal response (EC50) in experiment [2] (ref 34, read-out: calculated EC50) is 30.8 ± 1.28 µM; in experiment [2] (ref 39, read-out: calculated EC50), 10.7 ± 2 µM.

With `C=C(C)C1CCC2(C)OC2C1` (single isomer, unassigned; (+)) [(+)-limonene oxide], in experiment [1], the activity at 1 µM came out at 0%, the activity at 10 µM turned out to be 0% and the activity at 100 µM was found to be 0%.

Consider `C=CC(O)CCCCC` (centres unmarked) [1-octen-3-ol], for which the EC50 in experiment [3] is 1.27 µM.

`C=C1CC[C@@]23C[C@@H]1C(C)(C)[C@@H]2CC[C@H]3C` [(+)-beta-cedrene]: in experiment [1], the activity at 1 µM stood at 0%, the activity at 10 µM came to 0% and the activity at 100 µM amounted to 0%.

In the case of `CCCCCC(C)=O` [2-heptanone], the EC50 in experiment [4] (OR85b in Xenopus oocytes, Nichols and Luetje, read-out: EC50) was 70 ± 20 µM; in experiment [4] (OR85b, Misawa et al., read-out: average EC50), 45.6 µM.

Consider `C=C(C)[C@H]1CC=C(C)CC1` [(R)-(+)-limonene], for which, in experiment [1], the activity at 1 µM amounted to 0%, the activity at 10 µM is 0% and the activity at 100 µM is 0%.
